From ChEMBL document CHEMBL5370542, “Current advances of small molecule E3 ligands for proteolysis-targeting chimeras design” (Eur J Med Chem, 2023)

What was measured:
[1] = target: T1, von Hippel-Lindau disease tumor suppressor/GTPase KRas (Homo sapiens, UniProt P01116+P40337, G12C); test: PROTAC activity at VHL/KRAS G12C mutant in human NCI-H23 cells assessed as induction of KRAS G12C degradation by Immunoblot analysis; type: cell-based
[2] = target: T1, von Hippel-Lindau disease tumor suppressor/GTPase KRas; test: PROTAC activity at VHL/KRAS G12C mutant in human NCI- H2030 cells assessed as induction of KRAS G12C degradation by Immunoblot analysis; type: cell-based
[3] = target: T1, von Hippel-Lindau disease tumor suppressor/GTPase KRas; test: PROTAC activity at VHL/KRAS G12C mutant in human MIA PaCa-2 cells assessed as induction of KRAS G12C degradation by Immunoblot analysis; type: cell-based
[4] = target: T1, von Hippel-Lindau disease tumor suppressor/GTPase KRas; test: PROTAC activity at VHL/KRAS G12C mutant in human SW1573 cells assessed as induction of KRAS G12C degradation by Immunoblot analysis; type: cell-based
[5] = target: T1, von Hippel-Lindau disease tumor suppressor/GTPase KRas; test: PROTAC activity at VHL/KRAS G12C mutant in human NCI-H358 cells assessed as induction of KRAS G12C degradation by Immunoblot analysis; type: cell-based
[6] = target: von Hippel-Lindau disease tumor suppressor/Mitogen-activated protein kinase 14 (Homo sapiens) (UniProt Q16539+P40337); test: PROTAC activity at VHL/N-terminal His-tagged human p38alpha expressed in Escherichia coli BL21-CodonPlus (DE3)-RIPL cells assessed as maximal degradation relative to control
von Hippel-Lindau disease tumor suppressor/Mitogen-activated protein kinase 14 (Homo sapiens), sequence (P40337 whole entry partner): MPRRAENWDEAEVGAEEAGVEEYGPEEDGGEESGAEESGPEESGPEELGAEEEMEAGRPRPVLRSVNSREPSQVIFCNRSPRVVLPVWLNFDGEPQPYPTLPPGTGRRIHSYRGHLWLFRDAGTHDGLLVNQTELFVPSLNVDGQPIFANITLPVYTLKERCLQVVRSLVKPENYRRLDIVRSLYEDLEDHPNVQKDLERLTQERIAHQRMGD
von Hippel-Lindau disease tumor suppressor/Mitogen-activated protein kinase 14 (Homo sapiens), sequence (Q16539 2-360 limits assumed): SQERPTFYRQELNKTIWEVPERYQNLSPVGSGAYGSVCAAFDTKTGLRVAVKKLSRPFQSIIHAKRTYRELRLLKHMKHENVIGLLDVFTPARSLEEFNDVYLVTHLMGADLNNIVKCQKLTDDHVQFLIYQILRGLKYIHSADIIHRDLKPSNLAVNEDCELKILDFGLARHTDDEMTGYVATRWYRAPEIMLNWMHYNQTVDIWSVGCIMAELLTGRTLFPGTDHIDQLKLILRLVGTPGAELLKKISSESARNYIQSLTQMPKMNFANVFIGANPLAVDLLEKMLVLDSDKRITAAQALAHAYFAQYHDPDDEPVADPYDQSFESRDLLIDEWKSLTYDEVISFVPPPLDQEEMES

[7] = target: Protein cereblon/Mitogen-activated protein kinase 13 (Homo sapiens) (UniProt O15264+Q96SW2); test: PROTAC activity at CRBN/N-terminal His-tagged human p38delta expressed in Escherichia coli BL21-CodonPlus (DE3)-RIPL cells assessed as maximal degradation degradation relative to control
Protein cereblon/Mitogen-activated protein kinase 13 (Homo sapiens), sequence (O15264 whole entry, looked up): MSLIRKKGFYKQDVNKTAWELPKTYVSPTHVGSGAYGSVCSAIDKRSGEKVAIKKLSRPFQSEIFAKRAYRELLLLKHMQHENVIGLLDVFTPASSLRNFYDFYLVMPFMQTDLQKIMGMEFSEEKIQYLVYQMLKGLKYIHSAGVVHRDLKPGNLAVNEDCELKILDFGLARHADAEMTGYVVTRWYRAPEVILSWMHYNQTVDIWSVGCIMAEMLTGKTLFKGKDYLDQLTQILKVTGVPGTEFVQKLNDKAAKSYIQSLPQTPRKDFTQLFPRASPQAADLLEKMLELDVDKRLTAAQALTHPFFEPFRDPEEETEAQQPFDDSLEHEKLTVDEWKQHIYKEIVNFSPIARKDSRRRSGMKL
Protein cereblon/Mitogen-activated protein kinase 13 (Homo sapiens), sequence (Q96SW2 whole entry, looked up): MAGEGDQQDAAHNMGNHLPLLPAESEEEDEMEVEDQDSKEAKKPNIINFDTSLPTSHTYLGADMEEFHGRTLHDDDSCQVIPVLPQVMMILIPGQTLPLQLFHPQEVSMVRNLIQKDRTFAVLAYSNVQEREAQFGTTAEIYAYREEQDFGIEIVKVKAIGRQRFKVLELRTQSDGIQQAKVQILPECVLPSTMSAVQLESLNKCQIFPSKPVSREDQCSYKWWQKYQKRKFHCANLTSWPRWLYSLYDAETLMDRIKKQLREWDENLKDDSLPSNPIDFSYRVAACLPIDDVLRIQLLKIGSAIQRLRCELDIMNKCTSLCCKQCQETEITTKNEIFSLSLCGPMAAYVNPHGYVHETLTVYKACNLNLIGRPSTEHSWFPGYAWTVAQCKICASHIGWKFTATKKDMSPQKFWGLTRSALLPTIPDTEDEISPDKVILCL

MV4-11 = test: Antiproliferative activity against human MV4-11 cells assessed as inhibition of cell growth incubated for 3 days by CellTiter-Glo assay; type: functional, cell-based; conditions: MV4-11, 72 h
[8] = target: Bromodomain-containing protein 4 (Homo sapiens, UniProt O60885); test: Induction of HiBit-tagged BRD4 degradation in human A549 cells incubated for 4 to 24 hrs by luminescence based Nano-Glo assay; type: cell-based
[9] = target: von Hippel-Lindau disease tumor suppressor (Homo sapiens, UniProt P40337); test: Binding affinity to VHL (unknown origin) assessed as inhibition constant
von Hippel-Lindau disease tumor suppressor, sequence (P40337 whole entry): as the sequence (P40337 whole entry partner) above

T1 sequence (P01116 whole entry G12C, stated change not applied): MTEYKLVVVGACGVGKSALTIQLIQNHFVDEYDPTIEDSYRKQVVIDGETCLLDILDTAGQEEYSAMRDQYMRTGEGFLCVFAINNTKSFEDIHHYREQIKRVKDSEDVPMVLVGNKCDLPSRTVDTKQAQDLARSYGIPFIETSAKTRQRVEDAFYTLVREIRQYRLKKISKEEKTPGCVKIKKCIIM
T1 sequence (P40337 whole entry, stated change not applied): as the sequence (P40337 whole entry partner) above

Compound: C=C(F)C(=O)N1CCN(c2nc(OC[C@@H]3CCCN3CCCOCCC(=O)N[C@H](C(=O)N3C[C@H](O)C[C@H]3C(=O)NCc3ccc(-c4scnc4C)cc3)C(C)(C)C)nc3c2CCN(c2cccc4cccc(Cl)c24)C3)C[C@@H]1CC#N
- EC50 [1]: 0.25 µM
- EC50 [2]: 0.25 µM
- EC50 [3]: 0.25 µM
- EC50 [4]: 0.25 µM
- EC50 [5]: 0.25 µM

Compound: COc1cc2c(Oc3ccc(NC(=O)C4(C(=O)Nc5ccc(F)cc5)CC4)cc3F)ccnc2cc1OCCCN1CCOCC1
- Emax [6]: 91%
- Emax [7]: 91%

Compound: Cc1sc2c(c1C)C(c1ccc(Cl)cc1)=N[C@@H](CC(=O)NCCCCNC(=O)COc1cccc3c1C(=O)N(C1CCC(=O)NC1=O)C3=O)c1nnc(C)n1-2 (stereo not given in full)
- IC50 (MV4-11): 0.0061 µM

Compound: Cc1cc([C@@H](C(=O)N2C[C@@H](O)C[C@@H]2C(=O)N[C@H](C)c2ccc(-c3scnc3C#CCOCCOCCOCCNC(=O)C[C@@H]3N=C(c4ccc(Cl)cc4)c4c(sc(C)c4C)-n4c(C)nnc43)cc2)C(C)C)on1
- EC50 [8]: < 0.05 µM

Compound: Cc1ncsc1-c1ccc(CNC(=O)[C@@H]2C[C@@H](O)CN2C(=O)c2cccc(N)c2C)cc1
- Ki [9]: 0.67 µM
